Measurements from patent publication US20080188508A1, “Methods and Therapies for Potentiating a Therapeutic Action of an Opioid Receptor Agonist and Inhibiting and/or Reversing Tolerance to Opioid Receptor Agonists” (priority 2007, published 2008).

Key:
[1] = dose of AM-251 used in these experiments; Trang et al. Pain 2006; cited from earlier work
Sprague Dawley rats = tested on: Sprague Dawley rats
Protocol: Experiments were performed in accordance with guidelines of the Canadian Council on Animal Care using protocols approved by the University Animal Care Committee. Adult male Sprague Dawley rats (200-250 grams) (Charles River, Quebec) were housed in separate cages and maintained on a 12 hour light/12 hour dark cycle with access to food and water ad libitum.
Animals were anaesthetized with halothane (4%) and implanted with an indwelling intrathecal catheter. A small puncture was made in the atlanto-occipital membrane and a polythene catheter (PE-10; 7.5 cm long) inserted caudally so that the tip rested on the lumbar enlargement of the spinal cord. The rostral end was exteriorized to facilitate drug administration. Surgical wounds were closed with sutures and animals allowed to recover for one week. Animals showing signs of forelimb or hindlimb paralysis were excluded from experiments. Drugs were injected in a 10 μl volume (i.t.) followed by 10 μl of 0.9% saline to flush the catheter.
Response to an acute thermal nociceptive stimulus was assessed in rats using the tail-flick test. Radiant heat was applied to the dorsal surface of the tail using an analgesic meter and the time latency for removal of the tail from the stimulus was recorded. […] A cutoff of 10 seconds was used in both studies to prevent tissue injury.
Response to an acute mechanical nociceptive stimulus was assessed using the paw-pressure test. Using an air-filled inverted syringe, pressure was gradually applied to the dorsal surface of the hindpaw until a paw withdrawal response was observed and the value (mmHg) recorded. A cut-off of 300 mmHg was used to prevent tissue injury.
Tail-flick and paw-pressure nociceptive tests were performed both before and 30 minutes after drug injection. […] Nociceptive testing was performed both before and 30 minutes after each injection.
The day following ED50 testing, spinal cords from animals were processed for CGRP immunohistochemical staining as described infra.
Tail-flick and paw-pressure values were converted to a maximum percentage effect (M.P.E.): M.P.E.=100×[post-drug response−baseline response]/[maximum response−baseline response]. Data in the figures are expressed as mean±s.e.mean. ED50 values were determined using a non-linear regression analysis (Prism 2, GraphPad Software Inc., San Diego, Calif., USA). Statistical significance (p<0.05) was determined using a one-way analysis of variance (ANOVA) followed by a Student Newman-Keuls post hoc test for multiple comparisons between groups.

[2] = tested on: CGRP-immunoreactive neurons in adult rat dorsal root ganglion cultures
Protocol: In this method, rats were decapitated and DRGs removed aseptically from the cervical, thoracic, lumbar, and sacral regions of the spinal cord. […] DRGs were minced, digested with 0.25% collagenase (Calbiochem) in Ham's F12 Medium (GIBCO/BRL) for 90 minutes at 37° C., and then trypsinized (0.25%) (GIBCO/BRL) for 1.5 hours at 37° C. Next, the tissues were triturated with a 19 gauge syringe in Dulbecco's Modified Eagle Medium (DMEM, GIBCO/BRL) containing 1% HEPES buffer, penicillin/streptomycin (1:100), and 10% Fetal Bovine Serum (GIBCO/BRL). Samples were then centrifuged at 500 g for 10 minutes. The resulting pellet was resuspended with DMEM and filtered through a cell strainer (70 μm, Falcon). DRG cells were seeded in a poly-D-lysine coated 96-well culture plate (Falcon) at a density of 5×10^4 cells/well and incubated at 37° C. with 5% CO2 and 95% O2 for the duration of the experiment. […]
To examine the effects of drug treatment on CGRP-immunoreactivity in the cultured DRG cells, the number of CGRP immunopositive cells was counted using an inverted phase microscope (Olympus CX2). […] The field of view in which CGRP-IR cells were counted measured 1 mm^2. […]
For the cultured DRG studies, the mean±s.e.mean of CGRP-immunopositive cells was obtained from 4 wells per treatment group in each of 3 separate cell cultures. Data are expressed as a percent of saline control wells. […]

[3] = i.t. morphine 15 μg, first injection, both tail-flick and paw-pressure test

## Cc1c(C(=O)NN2CCCCC2)nn(-c2ccc(Cl)cc2Cl)c1-c1ccc(I)cc1 [AM-251, 1-(2,4-dichlorophenyl)-5-(4-iodophenyl)-4-methyl-N-1-piperidinyl-1H-pyrazole-3-carboxamide]
[1]
  effect on anandamide-induced antinociception: selectively block
  influence on acute morphine-induced analgesia: no influence
Sprague Dawley rats; AM-251 3.2 μg administered alone over 5 days
  effect on basal nociceptive responses: did not have an effect
Sprague Dawley rats; AM-251 3.2 μg alone for 5 days
  morphine ED50 value versus chronic saline treatment: did not significantly alter
Sprague Dawley rats; AM-251 3.2 μg in the absence of morphine on days 6-10
  effect on basal nociceptive response: no effect
Sprague Dawley rats; AM-251 (1.6 μg or 3.2 μg) co-administered with i.t. morphine for 5 days
  effect on the increase in morphine ED50 values: completely blocked the increase in ED50 values
Sprague Dawley rats; acute paradigm, co-treatment of AM-251 with morphine
  effect on the increase in morphine ED50 value: suppressed the increase in ED50 value
Sprague Dawley rats; acute paradigm, drug without the other drug: single morphine injection then saline, or AM-251 3.2 μg alone
  morphine ED50 value versus saline-only control: did not change
Sprague Dawley rats; i.t. injections of AM-251 alone, acute paradigm, either test
  effect on baseline antinociceptive responses: no effect
Sprague Dawley rats; morphine days 1-5 discontinued, then saline (row morphine) or AM-251 alone (row AM-251) on days 6-10
  morphine ED50 value versus saline-only animals: comparable to saline-only

## CN1CC[C@]23c4c5ccc(O)c4O[C@H]2[C@@H](O)C=C[C@H]3[C@H]1C5.O=S(=O)(O)O [morphine, Morphine sulphate]
Sprague Dawley rats; daily i.t. morphine (3.2 μg as printed) for 10 days, by day 5
  antinociceptive effect on daily injection for 10 days: progressive decline in morphine antinociception to baseline levels
Sprague Dawley rats; [3]
  time by which antinociceptive response returned to baseline: ≤ 90 min
  time of maximal antinociceptive response post-injection: 30 min
[2]; chronic morphine (20 μM) treatment for 5-days
  increase in number of CGRP-immunopositive neurons compared to vehicle-treated controls: approximately 57%

## C=CCN1CC[C@]23c4c5ccc(O)c4O[C@H]2C(=O)CC[C@@]3(O)[C@H]1C5 [naloxone]
[2]; pre-treatment with naloxone 10 μM, morphine 20 μM
  effect on the morphine-induced increase in CGRP-immunopositive neurons: blocked
